Experimental data taken from PubChem BioAssay AID1259407 (Chemical Carcinogenesis Research Information System (CCRIS), 2018).
Calls of active or inactive are those of the source. No rule for the calls is given here.

Tested on: CCRIS mutagenicity, Ames/micronucleus/aberration tests
Assay: CCRIS mutagenicity studies
[1] = Test System: AMES SALMONELLA TYPHIMURIUM, Strain/Indicator: TA98, Metabolic Activation: NONE, Method: PREINCUBATION
[2] = Test System: AMES SALMONELLA TYPHIMURIUM, Strain/Indicator: TA100, Metabolic Activation: NONE, Method: PREINCUBATION
[3] = Test System: AMES SALMONELLA TYPHIMURIUM, Strain/Indicator: TA1535, Metabolic Activation: NONE, Method: PREINCUBATION
[4] = Test System: AMES SALMONELLA TYPHIMURIUM, Strain/Indicator: TA97, Metabolic Activation: NONE, Method: PREINCUBATION

Measured: mutagenic call

CC(O)C(C)O (stereo unspecified)
inactive: [1] inactive; negative | [2] inactive; negative | [3] inactive; negative | Test System: AMES SALMONELLA TYPHIMURIUM, Strain/Indicator: TA1537, Metabolic Activation: NONE, Method: PREINCUBATION inactive; negative | Test System: AMES SALMONELLA TYPHIMURIUM, Strain/Indicator: TA1538, Metabolic Activation: NONE, Method: PREINCUBATION inactive; negative | Test System: E. COLI, Strain/Indicator: WP2 UVRA, Metabolic Activation: NONE, Method: PREINCUBATION inactive; negative

c1cnc2ccc3c(c2c1)CC[C@@H]1O[C@H]31
inactive: Test System: AMES SALMONELLA TYPHIMURIUM, Strain/Indicator: TA100, Metabolic Activation: NONE, Method: STANDARD PLATE inactive; negative

COc1cc(C(C)=O)cc(OC)c1O
inactive: [4] inactive; negative | Test System: AMES SALMONELLA TYPHIMURIUM, Strain/Indicator: TA97, Metabolic Activation: RAT, LIVER, S-9, AROCLOR 1254, Method: PREINCUBATION inactive; negative | [1] inactive; negative | Test System: AMES SALMONELLA TYPHIMURIUM, Strain/Indicator: TA98, Metabolic Activation: RAT, LIVER, S-9, AROCLOR 1254, Method: PREINCUBATION inactive; negative | [2] inactive; negative | Test System: AMES SALMONELLA TYPHIMURIUM, Strain/Indicator: TA100, Metabolic Activation: RAT, LIVER, S-9, AROCLOR 1254, Method: PREINCUBATION inactive; negative | Test System: AMES SALMONELLA TYPHIMURIUM, Strain/Indicator: TA102, Metabolic Activation: NONE, Method: PREINCUBATION inactive; negative | Test System: AMES SALMONELLA TYPHIMURIUM, Strain/Indicator: TA102, Metabolic Activation: RAT, LIVER, S-9, AROCLOR 1254, Method: PREINCUBATION inactive; negative

Cc1noc(NS(=O)(=O)c2ccc(N)cc2)c1C
inactive: End Point: IN VITRO CHROMOSOMAL ABERRATIONS, Test System: CHO CELLS, Metabolic Activation: NONE inactive; negative | End Point: IN VITRO CHROMOSOMAL ABERRATIONS, Test System: CHO CELLS, Metabolic Activation: RAT, LIVER, S-9, AROCLOR 1254 inactive; negative | Test System: AMES SALMONELLA TYPHIMURIUM, Strain/Indicator: TA97, Metabolic Activation: HAMSTER, LIVER, S-9, AROCLOR 1254 (10 OR 30%), Method: PREINCUBATION inactive; negative | [4] inactive; negative | Test System: AMES SALMONELLA TYPHIMURIUM, Strain/Indicator: TA97, Metabolic Activation: RAT, LIVER, S-9, AROCLOR 1254 (10 OR 30%), Method: PREINCUBATION inactive; negative | Test System: AMES SALMONELLA TYPHIMURIUM, Strain/Indicator: TA98, Metabolic Activation: HAMSTER, LIVER, S-9, AROCLOR 1254 (10 OR 30%), Method: PREINCUBATION inactive; negative | [1] inactive; negative | Test System: AMES SALMONELLA TYPHIMURIUM, Strain/Indicator: TA98, Metabolic Activation: RAT, LIVER, S-9, AROCLOR 1254 (10 OR 30%), Method: PREINCUBATION inactive; negative | Test System: AMES SALMONELLA TYPHIMURIUM, Strain/Indicator: TA100, Metabolic Activation: HAMSTER, LIVER, S-9, AROCLOR 1254 (10 OR 30%), Method: PREINCUBATION inactive; negative | [2] inactive; negative | Test System: AMES SALMONELLA TYPHIMURIUM, Strain/Indicator: TA100, Metabolic Activation: RAT, LIVER, S-9, AROCLOR 1254 (10 OR 30%), Method: PREINCUBATION inactive; negative | Test System: AMES SALMONELLA TYPHIMURIUM, Strain/Indicator: TA1535, Metabolic Activation: HAMSTER, LIVER, S-9, AROCLOR 1254 (10 OR 30%), Method: PREINCUBATION inactive; negative | [3] inactive; negative | Test System: AMES SALMONELLA TYPHIMURIUM, Strain/Indicator: TA1535, Metabolic Activation: RAT, LIVER, S-9, AROCLOR 1254 (10 OR 30%), Method: PREINCUBATION inactive; negative | Test System: E. COLI, Strain/Indicator: WP2 UVRA, Metabolic Activation: HAMSTER, LIVER, S-9, AROCLOR 1254, Method: STANDARD PLATE inactive; negative | Test System: E. COLI, Strain/Indicator: WP2 UVRA, Metabolic Activation: HAMSTER, LIVER, S-9, Method: STANDARD PLATE inactive; negative | Test System: E. COLI, Strain/Indicator: WP2 UVRA, Metabolic Activation: MOUSE, LIVER, S-9, AROCLOR 1254, Method: STANDARD PLATE inactive; negative | Test System: E. COLI, Strain/Indicator: WP2 UVRA, Metabolic Activation: MOUSE, LIVER, S-9, Method: STANDARD PLATE inactive; negative | Test System: E. COLI, Strain/Indicator: WP2 UVRA, Metabolic Activation: NONE, Method: STANDARD PLATE inactive; negative | Test System: E. COLI, Strain/Indicator: WP2 UVRA, Metabolic Activation: RAT, LIVER, S-9, AROCLOR 1254, Method: STANDARD PLATE inactive; negative | Test System: E. COLI, Strain/Indicator: WP2 UVRA, Metabolic Activation: RAT, LIVER, S-9, Method: STANDARD PLATE inactive; negative

C#CCO
inactive: End Point: In vivo micronucleus, Test System: Normochromatic erythrocytes, Species: Mouse, Strain/Sex: B6C3F1/Male inactive; negative | End Point: In vivo micronucleus, Test System: Normochromatic erythrocytes, Species: Mouse, Strain/Sex: B6C3F1/female inactive; negative. in females, statistically significant trend test but no individual gro | Test System: AMES SALMONELLA TYPHIMURIUM, Strain/Indicator: TA97, Metabolic Activation: NONE inactive; negative | Test System: AMES SALMONELLA TYPHIMURIUM, Strain/Indicator: TA97, Metabolic Activation: RAT, LIVER, S-9, AROCLOR 1254 inactive; negative | Test System: AMES SALMONELLA TYPHIMURIUM, Strain/Indicator: TA98, Metabolic Activation: NONE inactive; negative | Test System: AMES SALMONELLA TYPHIMURIUM, Strain/Indicator: TA98, Metabolic Activation: RAT, LIVER, S-9, AROCLOR 1254 inactive; negative | Test System: AMES SALMONELLA TYPHIMURIUM, Strain/Indicator: TA100, Metabolic Activation: NONE inactive; negative | Test System: AMES SALMONELLA TYPHIMURIUM, Strain/Indicator: TA100, Metabolic Activation: RAT, LIVER, S-9, AROCLOR 1254 inactive; negative | Test System: AMES SALMONELLA TYPHIMURIUM, Strain/Indicator: TA102, Metabolic Activation: NONE inactive; negative | Test System: AMES SALMONELLA TYPHIMURIUM, Strain/Indicator: TA102, Metabolic Activation: RAT, LIVER, S-9, AROCLOR 1254 inactive; negative | Test System: Ames Salmonella typhimurium, Strain/Indicator: TA98, Metabolic Activation: Hamster, Liver, S9, Aroclor 1254 (30%), Method: Preincubation inactive; negative. authors judged results as equivocal. | Test System: Ames Salmonella typhimurium, Strain/Indicator: TA98, Metabolic Activation: Rat, Liver, S9, Aroclor 1254 (30%), Method: Preincubation inactive; negative. precipitate at highest dose. | Test System: Ames Salmonella typhimurium, Strain/Indicator: TA100, Metabolic Activation: Hamster, Liver, S9, Aroclor 1254 (30%), Method: Preincubation inactive; negative | Test System: Ames Salmonella typhimurium, Strain/Indicator: TA100, Metabolic Activation: Rat, Liver, S9, Aroclor 1254 (30%), Method: Preincubation inactive; negative | Test System: Ames Salmonella typhimurium, Strain/Indicator: TA1535, Metabolic Activation: None, Method: Preincubation inactive; negative
